# Values joined by “and” are separate entries in the source; they are usually repeats but may differ in a detail not shown here. Identical values can stand only once.
# How the values were obtained:
# [1] = system: methicillin-resistant Staphylococcus aureus (MRSA) sepsis; parameters: method as in PMID 34681611; conditions: ip every other day 0.4, 2 and 10 mg/kg pre-treatment; cited from earlier work
# MKNK2 = target: T1, MKNK2 (Homo sapiens, UniProt Q9HBH9); experiment: KINOMEscan competition binding; conditions: for Kd: validation Kd titration, 0.003 to 50 µM, two values per cell
# T1 construct: purchased Eurofins DiscoverX (KINOMEscan)
# T1 sequence (Q9HBH9 whole entry): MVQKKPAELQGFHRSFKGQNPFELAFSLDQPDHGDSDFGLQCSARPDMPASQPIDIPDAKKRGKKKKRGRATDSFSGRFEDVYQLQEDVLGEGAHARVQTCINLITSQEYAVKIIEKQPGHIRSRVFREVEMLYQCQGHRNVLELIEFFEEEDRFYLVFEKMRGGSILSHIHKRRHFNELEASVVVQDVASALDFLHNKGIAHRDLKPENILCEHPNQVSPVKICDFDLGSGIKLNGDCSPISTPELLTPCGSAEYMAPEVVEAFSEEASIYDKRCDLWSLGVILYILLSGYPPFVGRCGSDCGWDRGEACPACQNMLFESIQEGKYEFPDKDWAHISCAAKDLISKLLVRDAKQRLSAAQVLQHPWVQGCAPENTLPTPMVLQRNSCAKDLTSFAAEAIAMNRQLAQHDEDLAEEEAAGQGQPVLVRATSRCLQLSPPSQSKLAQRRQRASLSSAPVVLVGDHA
# Description: (§1) Two distinct platforms were used for initial screening with 50 µM DOH vs. DMSO vehicle. The first was the Eurofins DiscoverX KINOMEscan® (Freemont, CA USA) profiling platform, which employed a proprietary active site-directed competition binding assay to quantitatively measure interactions between a test compound (i.e., DOH) and 468 human protein kinases and disease relevant mutant variants either directly (sterically) or indirectly (allosterically) to prevent a kinase binding to its immobilized substrate (ligand). The top 8 hits were subjected to secondary screening verification by DOH concentration-titration for dissociation constant (Kd). For ROCK1 and ROCK2, DA was chosen for Kd titration as well, because it is ~ 10 × higher than D in peripheral circulation due to its resistance to hydrolysis by carboxyesterase-2 (Fig. 1C).
# DSS-induced colitis = system: DSS-induced colitis; parameters: method as in PMID 30917627; conditions: ip every other day 0.4 and 4 mg/kg; cited from earlier work
# GDH = system: GDH; parameters: method as in PMID 36455296; conditions: read-out: GDH inhibition IC50; cited from earlier work
# sleep architectures = system: sleep architectures; parameters: method as in PMID 28066138; conditions: DA 50 mg/kg, po; cited from earlier work
# CYP2C19 and 3A4 = conditions: cited from earlier work
# [2] = system: adipose stem cells (ASCs); parameters: method as in PMID 31861646; conditions: cited from earlier work
# CDK9 = CDK9 (Homo sapiens, UniProt P50750); experiment: KINOMEscan competition binding; parameters: purchased Eurofins DiscoverX (KINOMEscan)
# CDK9, sequence (P50750 whole entry): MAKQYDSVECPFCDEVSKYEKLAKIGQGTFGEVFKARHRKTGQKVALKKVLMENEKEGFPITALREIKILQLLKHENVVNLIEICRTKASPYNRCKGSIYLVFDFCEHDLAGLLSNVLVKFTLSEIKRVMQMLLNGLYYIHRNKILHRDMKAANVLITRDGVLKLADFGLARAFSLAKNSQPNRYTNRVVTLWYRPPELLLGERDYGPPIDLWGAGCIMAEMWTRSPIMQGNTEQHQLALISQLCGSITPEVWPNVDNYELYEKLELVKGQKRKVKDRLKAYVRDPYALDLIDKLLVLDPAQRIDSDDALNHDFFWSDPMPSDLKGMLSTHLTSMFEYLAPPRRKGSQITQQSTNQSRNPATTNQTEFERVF
# Description: as §1
# acute pain models = system: acute pain models; parameters: method as in PMID 12759141; conditions: cited from earlier work
# ARK5/NUAK1 = target: T2, ARK5/NUAK1 (Homo sapiens, UniProt O60285); experiment: Reaction Biology kinase activity inhibition; type: biochemical; conditions: initial screening
# T2 construct: purchased Reaction Biology
# T2 sequence (O60285 1-661): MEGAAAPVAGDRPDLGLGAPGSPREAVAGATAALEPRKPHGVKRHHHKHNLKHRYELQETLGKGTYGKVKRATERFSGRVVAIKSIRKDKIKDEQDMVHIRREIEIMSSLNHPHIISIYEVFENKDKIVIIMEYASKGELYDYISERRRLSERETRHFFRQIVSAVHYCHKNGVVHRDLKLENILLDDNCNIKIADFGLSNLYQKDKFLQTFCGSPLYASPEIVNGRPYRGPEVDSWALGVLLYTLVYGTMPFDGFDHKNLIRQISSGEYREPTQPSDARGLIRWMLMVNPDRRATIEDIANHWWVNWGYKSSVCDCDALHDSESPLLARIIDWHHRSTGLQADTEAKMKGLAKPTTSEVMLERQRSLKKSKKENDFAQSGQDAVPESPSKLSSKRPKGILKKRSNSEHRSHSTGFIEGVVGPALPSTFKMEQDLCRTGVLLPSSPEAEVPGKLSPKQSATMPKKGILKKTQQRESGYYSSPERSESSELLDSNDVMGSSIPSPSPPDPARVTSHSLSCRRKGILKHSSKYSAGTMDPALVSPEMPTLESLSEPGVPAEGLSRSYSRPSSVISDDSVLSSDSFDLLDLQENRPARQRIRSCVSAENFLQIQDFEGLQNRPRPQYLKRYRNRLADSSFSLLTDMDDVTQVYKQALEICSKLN
# Source text: (§2) The second screening was the Reaction Biology® (Malvern, PA) kinase activity inhibition tests, which screened for more than 600 protein kinases and lipid kinases, using miniaturized radioisotope-based assay platform with γ-^33P-ATP, followed by confirmation with IC50 kinase profiling service with 5 concentrations of test compound (i.e., DOH and DA) with curve fitting.
# ALK-TFG = experiment: Reaction Biology kinase activity inhibition; type: biochemical; conditions: initial screening
# Source text: as §2
# PIM1 = target: T3, PIM1 (Homo sapiens, UniProt P11309); experiment: Reaction Biology kinase activity inhibition; type: biochemical; conditions: initial screening
# T3 construct: purchased Reaction Biology
# T3 sequence (P11309 whole entry): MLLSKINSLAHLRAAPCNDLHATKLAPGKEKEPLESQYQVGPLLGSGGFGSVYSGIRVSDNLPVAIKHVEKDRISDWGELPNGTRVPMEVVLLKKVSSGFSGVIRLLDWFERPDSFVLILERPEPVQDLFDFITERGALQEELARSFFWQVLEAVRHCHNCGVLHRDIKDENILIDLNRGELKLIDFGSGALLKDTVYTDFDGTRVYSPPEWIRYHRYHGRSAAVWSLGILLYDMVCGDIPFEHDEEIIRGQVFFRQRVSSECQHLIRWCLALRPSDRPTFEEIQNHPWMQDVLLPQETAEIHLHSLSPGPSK
# Source text: as §2
# STK21/CIT = target: T4, STK21/CIT (Homo sapiens, UniProt O14578); experiment: Reaction Biology kinase activity inhibition; type: biochemical; conditions: initial screening
# T4 construct: purchased Reaction Biology
# T4 sequence (O14578 whole entry): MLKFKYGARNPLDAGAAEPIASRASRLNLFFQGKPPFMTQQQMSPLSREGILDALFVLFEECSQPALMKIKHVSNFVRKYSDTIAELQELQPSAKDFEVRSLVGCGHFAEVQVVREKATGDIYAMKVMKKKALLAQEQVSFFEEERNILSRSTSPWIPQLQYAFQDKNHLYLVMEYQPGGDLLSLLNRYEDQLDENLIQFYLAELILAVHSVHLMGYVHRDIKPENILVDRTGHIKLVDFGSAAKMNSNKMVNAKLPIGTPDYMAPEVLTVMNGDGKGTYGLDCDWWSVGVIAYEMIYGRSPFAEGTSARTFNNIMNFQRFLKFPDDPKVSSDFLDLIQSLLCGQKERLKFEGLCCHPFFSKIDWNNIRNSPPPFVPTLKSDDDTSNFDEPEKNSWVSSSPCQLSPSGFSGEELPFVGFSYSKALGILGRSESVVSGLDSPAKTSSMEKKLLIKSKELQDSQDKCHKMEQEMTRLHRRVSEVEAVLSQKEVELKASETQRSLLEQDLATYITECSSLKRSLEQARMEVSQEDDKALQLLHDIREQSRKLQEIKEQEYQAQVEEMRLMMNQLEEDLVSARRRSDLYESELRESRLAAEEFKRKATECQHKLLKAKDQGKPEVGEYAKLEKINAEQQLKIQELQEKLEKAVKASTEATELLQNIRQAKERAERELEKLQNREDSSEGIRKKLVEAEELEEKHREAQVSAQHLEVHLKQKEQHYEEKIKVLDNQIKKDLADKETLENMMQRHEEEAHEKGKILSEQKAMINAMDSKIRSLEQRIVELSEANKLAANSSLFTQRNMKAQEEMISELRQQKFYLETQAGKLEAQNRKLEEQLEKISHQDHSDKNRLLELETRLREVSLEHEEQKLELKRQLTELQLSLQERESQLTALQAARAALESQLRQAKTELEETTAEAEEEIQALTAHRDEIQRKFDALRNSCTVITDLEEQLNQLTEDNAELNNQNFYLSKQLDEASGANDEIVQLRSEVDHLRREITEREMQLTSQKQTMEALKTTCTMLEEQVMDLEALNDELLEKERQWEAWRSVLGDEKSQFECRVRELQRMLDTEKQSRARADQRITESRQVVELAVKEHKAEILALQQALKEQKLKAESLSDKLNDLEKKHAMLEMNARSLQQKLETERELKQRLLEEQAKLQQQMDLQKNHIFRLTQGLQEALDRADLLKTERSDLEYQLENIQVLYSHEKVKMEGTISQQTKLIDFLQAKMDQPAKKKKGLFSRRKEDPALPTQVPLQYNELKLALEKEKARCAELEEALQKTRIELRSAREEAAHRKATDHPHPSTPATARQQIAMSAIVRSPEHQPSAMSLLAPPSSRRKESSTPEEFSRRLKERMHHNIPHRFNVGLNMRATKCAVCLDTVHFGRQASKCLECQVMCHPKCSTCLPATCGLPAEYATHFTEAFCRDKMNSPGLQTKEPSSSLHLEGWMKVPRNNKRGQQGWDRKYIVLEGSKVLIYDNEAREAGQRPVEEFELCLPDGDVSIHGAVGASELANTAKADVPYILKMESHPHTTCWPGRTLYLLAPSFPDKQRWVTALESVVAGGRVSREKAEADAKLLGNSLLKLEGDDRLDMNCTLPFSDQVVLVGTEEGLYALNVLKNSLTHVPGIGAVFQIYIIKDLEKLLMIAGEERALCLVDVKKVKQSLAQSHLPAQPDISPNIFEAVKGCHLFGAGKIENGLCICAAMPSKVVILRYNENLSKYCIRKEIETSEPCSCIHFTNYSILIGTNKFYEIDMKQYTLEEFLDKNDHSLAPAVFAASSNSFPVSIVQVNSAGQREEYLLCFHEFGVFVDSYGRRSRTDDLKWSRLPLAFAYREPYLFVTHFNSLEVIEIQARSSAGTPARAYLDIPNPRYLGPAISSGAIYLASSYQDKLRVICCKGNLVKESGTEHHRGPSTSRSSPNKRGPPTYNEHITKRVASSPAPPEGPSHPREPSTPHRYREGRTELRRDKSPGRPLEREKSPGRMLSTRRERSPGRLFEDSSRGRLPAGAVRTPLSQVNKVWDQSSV
# Source text: as §2
# LKB1 = target: T5, LKB1 (Homo sapiens, UniProt Q15831); experiment: Reaction Biology kinase activity inhibition; type: biochemical; conditions: activity screening, DOH at 50 μM
# T5 construct: purchased Reaction Biology (Malvern, PA)
# T5 sequence (Q15831 whole entry): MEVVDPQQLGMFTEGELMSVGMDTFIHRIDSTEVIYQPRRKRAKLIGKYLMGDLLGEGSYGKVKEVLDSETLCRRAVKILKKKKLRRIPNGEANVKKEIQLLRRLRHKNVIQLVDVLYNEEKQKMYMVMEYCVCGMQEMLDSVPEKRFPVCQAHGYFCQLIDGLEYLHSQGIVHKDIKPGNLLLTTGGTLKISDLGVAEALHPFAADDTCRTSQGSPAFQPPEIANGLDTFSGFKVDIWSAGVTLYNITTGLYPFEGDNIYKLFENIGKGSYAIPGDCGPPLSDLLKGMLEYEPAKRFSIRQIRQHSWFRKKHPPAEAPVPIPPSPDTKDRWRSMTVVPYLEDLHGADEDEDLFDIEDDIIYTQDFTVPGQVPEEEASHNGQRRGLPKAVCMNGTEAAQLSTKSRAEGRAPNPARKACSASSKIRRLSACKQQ
# T5 sequence (Q7RTN6 whole entry partner): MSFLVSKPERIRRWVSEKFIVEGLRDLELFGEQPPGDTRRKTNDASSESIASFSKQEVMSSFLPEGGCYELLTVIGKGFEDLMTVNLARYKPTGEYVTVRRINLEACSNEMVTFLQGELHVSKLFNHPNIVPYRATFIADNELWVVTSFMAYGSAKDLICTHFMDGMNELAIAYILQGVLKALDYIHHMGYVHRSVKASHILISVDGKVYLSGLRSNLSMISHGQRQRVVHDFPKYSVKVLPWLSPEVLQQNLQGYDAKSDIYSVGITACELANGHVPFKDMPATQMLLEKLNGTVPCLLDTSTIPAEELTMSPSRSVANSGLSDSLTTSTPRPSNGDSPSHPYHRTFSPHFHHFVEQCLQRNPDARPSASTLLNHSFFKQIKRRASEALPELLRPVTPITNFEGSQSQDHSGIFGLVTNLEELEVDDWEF
# T5 sequence (Q9Y376 whole entry partner): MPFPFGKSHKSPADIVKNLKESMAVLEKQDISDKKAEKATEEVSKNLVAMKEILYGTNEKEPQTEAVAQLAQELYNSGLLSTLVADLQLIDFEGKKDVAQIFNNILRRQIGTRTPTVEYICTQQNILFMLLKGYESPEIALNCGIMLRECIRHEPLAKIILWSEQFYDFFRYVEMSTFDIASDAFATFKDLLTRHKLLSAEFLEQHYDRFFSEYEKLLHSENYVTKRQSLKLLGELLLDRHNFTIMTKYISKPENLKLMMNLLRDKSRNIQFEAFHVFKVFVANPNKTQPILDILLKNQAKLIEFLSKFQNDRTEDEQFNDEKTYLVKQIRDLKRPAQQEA
# Source text: as §2
# c-MET (Y1235D) = target: T6, c-MET (Y1235D) (Homo sapiens, UniProt P08581, Y1235D); experiment: Reaction Biology kinase activity inhibition; type: biochemical; conditions: initial screening
# T6 construct: purchased Reaction Biology
# Source text: as §2
# STK32B/YANK2 = target: T7, STK32B/YANK2 (Homo sapiens, UniProt Q9NY57); experiment: Reaction Biology kinase activity inhibition; type: biochemical; conditions: initial screening
# T7 construct: purchased Reaction Biology
# T7 sequence (Q9NY57 whole entry): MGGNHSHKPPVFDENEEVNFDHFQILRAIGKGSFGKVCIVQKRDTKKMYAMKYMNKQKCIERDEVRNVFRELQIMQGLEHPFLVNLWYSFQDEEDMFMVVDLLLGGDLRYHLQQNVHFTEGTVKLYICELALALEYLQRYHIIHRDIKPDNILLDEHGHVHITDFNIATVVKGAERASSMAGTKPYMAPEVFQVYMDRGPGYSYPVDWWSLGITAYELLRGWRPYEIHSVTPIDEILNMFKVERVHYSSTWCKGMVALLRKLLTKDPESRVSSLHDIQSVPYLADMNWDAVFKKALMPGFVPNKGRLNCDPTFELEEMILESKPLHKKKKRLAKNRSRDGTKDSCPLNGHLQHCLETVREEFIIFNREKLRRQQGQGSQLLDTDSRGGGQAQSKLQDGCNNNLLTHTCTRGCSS
# Source text: as §2
# [3] = DOH (50 µM), Data 1 and Data 2, read-out: % Enzyme Activity (relative to DMSO controls)
smiles,measurement,setting,value
"C/C=C(/C)C(=O)O[C@H]1Cc2cc3ccc(=O)oc3cc2OC1(C)C [DA, decursinol angelate]",mouse mortality and bacteremia,[1],dose-dependent decrease of mouse mortality
same,Kd,MKNK2,> 50 µM
same,severity of colitis,DSS-induced colitis,attenuated the severity of colitis
same,IC50,GDH,~1.4 µM and 1.4 µM
same,total sleep time (EEG),sleep architectures,increased total sleep time
same,Cyp isoforms for metabolism to DOH,CYP2C19 and 3A4,major human isoforms
same,adipocyte differentiation,[2],significantly inhibited adipocyte differentiation
"CC1(C)Oc2cc3oc(=O)ccc3cc2C[C@@H]1O [DOH, decursinol]","kinase bound, % of control at 50 µM",CDK9; read-out: Substrate bound % Control,12%
same,Kd,"CDK9; validation Kd titration, 0.003 to 50 µM",> 50 µM
same,remaining binding at 50 µM,"MKNK2; initial screening, DOH 50 µM, read-out: Substrate bound % Control",25%
same,Kd,MKNK2,20 µM and 25 µM
same,anti-nociceptive ED50,acute pain models; gavaged DOH 5 to 200 mg/kg,~ 50 mg/kg
same,peak time of anti-nociceptive efficacy,acute pain models; post dose,30 min
same,inhibition at 50 µM,ARK5/NUAK1; DOH 50 µM,27.4%
same,% Enzyme Activity (relative to DMSO controls),"ARK5/NUAK1; DOH (50 µM), Data 1 and Data 2",72.5%
same,remaining activity at 50 µM,ARK5/NUAK1; [3],72.6%
same,DOH % Inhibition,ALK-TFG; DOH 50 µM,27.9%
same,% Enzyme Activity (relative to DMSO controls),"ALK-TFG; DOH (50 µM), Data 1 and Data 2",75.7% and 68.5%
same,inhibition at 50 µM,PIM1; DOH 50 µM,38.5%
same,% Enzyme Activity (relative to DMSO controls),"PIM1; DOH (50 µM), Data 1 and Data 2",60.3%
same,remaining activity at 50 µM,PIM1; [3],62.7%
same,inhibition at 50 µM,STK21/CIT; DOH 50 µM,28.3%
same,% Enzyme Activity (relative to DMSO controls),"STK21/CIT; DOH (50 µM), Data 1 and Data 2",71.1%
same,remaining activity at 50 µM,STK21/CIT; [3],72.2%
same,inhibition of kinase activity,LKB1,no inhibition
same,inhibition at 50 µM,c-MET (Y1235D); DOH 50 µM,30.7%
same,% Enzyme Activity (relative to DMSO controls),"c-MET (Y1235D); DOH (50 µM), Data 1 and Data 2",69.0%
same,remaining activity at 50 µM,c-MET (Y1235D); [3],69.5%
same,inhibition at 50 µM,STK32B/YANK2; DOH 50 µM,31.1%
same,% Enzyme Activity (relative to DMSO controls),"STK32B/YANK2; DOH (50 µM), Data 1 and Data 2",67.4%
same,remaining activity at 50 µM,STK32B/YANK2; [3],70.3%
